Experimental data reported in US12492195B2, “Preparation method for and crystal form of 3-aryloxy-3-five-membered heteroaryl-propylamine compound” (Zhangzhou Pien Tze Huang Pharmaceutical Co., Ltd., priority 2020, dated 2025).

How the values were obtained:
TRPV4 = target: T1, TRPV4 (Homo sapiens, UniProt Q9HBA0); assay: Manual patch clamp detection on TRPV4 channel; format: cell-based; conditions: 10.00 μM, HEK293, GSK1016790A-induced current
T1 construct: expressed in transfected cells
Procedure: (§1) TRPV4 cells were cultured in a cell culture dish with a diameter of 35 mm, placed in an incubator in 5% CO2 at 37° C., and passaged at a ratio of 1:5 every 48 hours. The formula of medium was 90% DMEM (Invitrogen), 10% fetal bovine serum (Gibco), 2 mM L-glutamine, 50 μg/mL Hygromycin B (Invitrogen) and 5 μg/mL Blasticidine HCl (Invitrogen). Before electrophysiological patch clamp experiment, the cell culture medium was replaced with medium containing 1 μg/mL doxycycline for at least 16 hours to induce the expression of TRPV4.
On the day of the experiment, the cell culture medium was aspirated, the cell were rinsed once with extracellular fluid, and then 0.25% Trypsin-EDTA (Invitrogen) solution was added, and digested at room temperature for 1-2 minutes. The digestion solution was aspirated, the cell were resuspended with extracellular fluid, and transferred to the experimental dish for electrophysiological recording for further experiment. […]
(§2) HEK293 cells stably expressing TRP channels, the corresponding agonist-induced channel current was recorded by whole-cell patch clamp technique at room temperature. […] Clamp voltages and data recording were controlled and recorded by a computer using pClamp 11 software with the sampling frequency of 10 kHz and the filtering frequency of 2 kHz. […] After the current was evoked for more than 40 s and no attenuation was determined, the dosing process started. […]

TRPM8 = target: T2, TRPM8 (Homo sapiens, UniProt Q7Z2W7); assay: Manual patch clamp detection on TRPM8 channel; format: cell-based
T2 construct: expressed in transfected cells
T2 sequence (Q7Z2W7 whole entry, species assumed): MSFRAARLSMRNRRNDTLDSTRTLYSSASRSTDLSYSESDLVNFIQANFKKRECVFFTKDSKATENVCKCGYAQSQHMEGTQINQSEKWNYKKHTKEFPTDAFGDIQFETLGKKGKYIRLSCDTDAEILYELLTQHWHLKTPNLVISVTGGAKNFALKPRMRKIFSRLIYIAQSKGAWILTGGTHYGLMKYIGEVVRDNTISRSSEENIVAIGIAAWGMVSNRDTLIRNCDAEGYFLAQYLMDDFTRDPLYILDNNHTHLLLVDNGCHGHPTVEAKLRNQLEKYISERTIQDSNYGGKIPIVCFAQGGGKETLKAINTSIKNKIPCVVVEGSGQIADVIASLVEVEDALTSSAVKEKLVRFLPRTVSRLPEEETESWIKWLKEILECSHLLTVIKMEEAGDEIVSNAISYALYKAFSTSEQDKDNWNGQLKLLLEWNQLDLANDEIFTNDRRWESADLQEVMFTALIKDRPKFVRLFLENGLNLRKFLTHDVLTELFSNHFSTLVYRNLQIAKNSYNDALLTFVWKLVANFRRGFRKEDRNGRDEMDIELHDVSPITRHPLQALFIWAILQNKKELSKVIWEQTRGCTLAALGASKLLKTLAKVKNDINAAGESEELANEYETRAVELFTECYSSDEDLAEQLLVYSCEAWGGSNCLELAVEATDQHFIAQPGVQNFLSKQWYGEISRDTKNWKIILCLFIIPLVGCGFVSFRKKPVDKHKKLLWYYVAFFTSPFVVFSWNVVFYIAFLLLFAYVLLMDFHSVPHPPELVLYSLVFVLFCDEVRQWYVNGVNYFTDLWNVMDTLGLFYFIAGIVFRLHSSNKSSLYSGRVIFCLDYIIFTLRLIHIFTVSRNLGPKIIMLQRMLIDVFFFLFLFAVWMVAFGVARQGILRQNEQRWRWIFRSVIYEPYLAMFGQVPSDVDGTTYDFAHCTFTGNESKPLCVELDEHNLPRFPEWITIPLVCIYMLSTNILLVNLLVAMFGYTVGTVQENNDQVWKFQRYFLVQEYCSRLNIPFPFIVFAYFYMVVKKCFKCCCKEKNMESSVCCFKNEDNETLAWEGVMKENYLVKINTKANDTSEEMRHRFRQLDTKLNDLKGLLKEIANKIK
Procedure: as §1, with “TRPM8” for “TRPV4”, “TRPM8 expression.” for “the expression of TRPV4.”
On the day of the experiment, the cell culture medium was aspirated, the cell were rinsed once with extracellular fluid, and then 0.25% Trypsin-EDTA (Invitrogen) solution was added, and digested at room temperature for 1-2 minutes. The digestion solution was aspirated, the cell were resuspended with extracellular fluid, and transferred to the experimental dish for electrophysiological recording for further experiment.
Preparation of menthol: 100.00 mM of DMSO stock solution of menthol was added to the extracellular solution, diluting 1000-fold to 100.00 μM of menthol solution.
Preparation of AMTB: 5 μL of DMSO stock solution (20.00 mM) of AMTB was added to 4995 μL of menthol solution (100.00 uM), diluting 1000-fold to obtain the final concentration of 20.00 μM AMTB to be tested.
Preparation of IC-1: 20.00 mM or 10.00 mM of stock solution of IC-1 was taken and added to the agonist solution of the corresponding channel, diluting 1000 or 2000-fold to the final concentration of 10.00 μM of […] solution to be tested.
as §2

[1] = Pharmacokinetic test in rat; format: in vivo; conditions: PO 10 mg/kg
Procedure: A certain amount of sample was weighed and dissolved in deionized water to prepare 1 mg/mL of solution. Male SD rats were used as test animals. The dose of single intravenous (IV) injection was 2 mg/kg, and the dose of oral (PO) administration was 10 mg/kg. Each group had three rats. The rats in oral group were fasted for 10-14 hours before administration, and were fed 4 hours after administration. Blood collection time points of animals were before administration, and 5 min, 15 min, 30 min, 1 h, 2 h, 4 h, 6 h, 8 h, and 24 h after administration for intravenous administration; before administration, and 15 min, 30 min, 1 h, 2 h, 4 h, 6 h, 8 h and 24 h after administration for oral administration. About 0.25 mL of blood was collected via the jugular vein from each animal, and heparin sodium was used for anticoagulation. After collecting the blood samples, the blood samples were placed on ice and centrifuged to separate the plasma (centrifugation conditions: 8000 rpm, 6 min, 4° C.). The collected plasma was stored at −80° C. before analysis. 50 μL of plasma sample was taken into 1.5 mL centrifuge tube, 250 μL of internal standard solution was added, and the same volume of methanol rather than internal standard solution was added in the blank group. […]

T1 sequence (Q9HBA0 whole entry, species assumed): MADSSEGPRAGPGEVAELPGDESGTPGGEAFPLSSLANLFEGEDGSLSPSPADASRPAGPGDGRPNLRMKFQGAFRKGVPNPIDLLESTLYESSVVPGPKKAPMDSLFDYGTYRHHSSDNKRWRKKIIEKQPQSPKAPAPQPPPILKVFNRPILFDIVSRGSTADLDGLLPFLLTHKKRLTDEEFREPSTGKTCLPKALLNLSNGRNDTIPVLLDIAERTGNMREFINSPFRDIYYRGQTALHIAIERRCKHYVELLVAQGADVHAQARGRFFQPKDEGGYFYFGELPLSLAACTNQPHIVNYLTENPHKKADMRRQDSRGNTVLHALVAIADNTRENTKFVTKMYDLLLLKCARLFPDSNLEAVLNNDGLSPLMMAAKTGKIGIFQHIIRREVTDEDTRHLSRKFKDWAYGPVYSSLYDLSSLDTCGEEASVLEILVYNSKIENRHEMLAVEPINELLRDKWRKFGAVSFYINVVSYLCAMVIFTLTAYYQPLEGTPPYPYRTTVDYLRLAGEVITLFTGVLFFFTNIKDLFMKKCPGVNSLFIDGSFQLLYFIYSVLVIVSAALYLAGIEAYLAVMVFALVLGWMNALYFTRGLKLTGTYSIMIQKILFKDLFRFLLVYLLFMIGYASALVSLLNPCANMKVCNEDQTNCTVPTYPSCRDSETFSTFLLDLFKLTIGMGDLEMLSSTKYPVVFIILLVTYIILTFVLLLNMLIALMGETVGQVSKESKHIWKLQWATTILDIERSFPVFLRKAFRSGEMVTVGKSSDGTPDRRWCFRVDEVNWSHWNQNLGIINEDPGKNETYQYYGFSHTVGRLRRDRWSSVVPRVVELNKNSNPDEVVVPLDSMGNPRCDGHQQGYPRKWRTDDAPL

SMILES | inhibition at 10 µM (TRPV4) [%] | inhibition at 10 µM (TRPM8; 10.00 μM, HEK293, menthol-induced current) [%] | IC50 (TRPM8; read-out: IC50 of the compound to TRPM8) [µM] | Tmax [1] [min]
CNCC[C@H](Oc1cccc2ccoc12)c1cccs1 [IC-1, (S)-3-(Benzofuran-7-yloxy)-N-methyl-3-(thiophen-2-yl)propan-1-amine] | 4.68 | 41.1 | > 10 | –
CNCC[C@H](Oc1cccc2ccccc12)c1cccs1 [Duloxetine (S configuration), Duloxetine, reference compound] | – | – | – | 50
